Experimental data taken from US10155743B2, “Glutarimide derivatives, use thereof, pharmaceutical composition based thereon and methods for producing glutarimide derivatives” (OBSCHESTVO S OGRANICHENNOI OTVETSTVENNOSTIYU …, priority 2013, dated 2018).
Where two headings read alike, the source gives them in different places.

Test system: human virus hRSV adapted to the growth in mouse lungs
Assay: animal or person
Assay type: in vivo
Conditions: for Body weight of the mice after infection with hRSV, Day 5 / Body weight of the mice after infection with hRSV, Day 7: 30 mg/kg orally once daily for 5 days from 24 h after infection, M ± SD, n = 6; for hRSV viral titer in mouse lungs, Day 5, lg / hRSV viral titer in mouse lungs, Day 7, lg: 30 mg/kg orally once daily for 5 days, 10% lung suspension titrated in Hep-2 cell culture, TCID; for log reduction at 30 mg/kg: human respiratory syncytial virus, po, 120 h
[1] = read-out: Suppression of the reproduction of hRSV virus in mouse lungs, Day 5, Δlg
[2] = read-out: Suppression of the reproduction of hRSV virus in mouse lungs, Day 7, Δlg

Compound	Body weight of the mice after infection with hRSV, Day 5	Body weight of the mice after infection with hRSV, Day 7	hRSV viral titer in mouse lungs, Day 5, lg [lg]	hRSV viral titer in mouse lungs, Day 7, lg [lg]	log reduction at 30 mg/kg [1]	log reduction at 30 mg/kg [2]
O=C1CCCC(=O)N1CCc1cnc[nH]1 [Compound 1, 1-(2-(1H-imidazol-4-yl)ethyl)piperidine-2,6-dione]	16.43 ± 0.14	17.98 ± 0.26	2.88 ± 0.59	1.46 ± 0.17	1.73 ± 0.59	2.34 ± 0.17
O=C1CCCC(=O)N1CCC1CCCNC1 (stereo not shown) [Compound 121]	16.35 ± 0.20	17.38 ± 0.29	3.08 ± 0.47	1.50 ± 0.14	1.52 ± 0.47	2.09 ± 0.22
O=C1CCCC(=O)N1CCC1CCCN1 (stereo not shown) [Compound 4]	16.77 ± 0.20	17.08 ± 0.32	2.58 ± 0.51	1.38 ± 0.24	2.02 ± 0.51	2.58 ± 0.53
O=C1CCCC(=O)N1CCc1nccs1 [Compound 6]	16.47 ± 0.26	17.02 ± 0.29	–	–	–	–
O=C1CCCC(=O)N1CCc1nc2ccccc2s1 [Compound 7, 1-[2-(1H-benzothiazol-2-yl)ethyl]piperidine-2-dione]	17.17 ± 0.26	18.53 ± 0.55	–	–	–	–
O=C1CCCC(=O)N1CCc1ccncc1 [Compound 9]	15.75 ± 0.33	16.18 ± 0.29	–	–	–	–
Cn1cnc(CCN2C(=O)CCCC2=O)c1 [Compound 5]	16.02 ± 0.16	17.78 ± 0.26	2.17 ± 0.37	0.88 ± 0.31	2.43 ± 0.37	2.93 ± 0.31
O=C1CCCC(=O)N1CCc1cccnc1 [Compound 10, 1-[2-(1H-pyridyl-3-yl)ethyl]piperidine-2,6-dione]	16.18 ± 0.29	16.53 ± 0.20	–	–	–	–
O=C1CCCC(=O)N1CCc1ncc[nH]1 [Compound 8]	15.18 ± 0.18	17.13 ± 0.27	–	–	–	–
O=C1CCCC(=O)N1CCC1CCCCN1 (stereo not shown) [Compound 122]	16.93 ± 0.32	16.37 ± 0.21	3.04 ± 0.44	1.75 ± 0.41	1.56 ± 0.44	1.88 ± 0.47
O=C1CCCC(=O)N1CCc1nc2ccccc2[nH]1 [Compound 124]	16.43 ± 0.26	16.37 ± 0.43	2.46 ± 0.22	0.83 ± 0.37	2.14 ± 0.22	2.97 ± 0.37
O=C1CCCC(=O)N1CCC1CCNCC1 [Compound 123]	15.87 ± 0.20	17.55 ± 0.53	2.50 ± 0.43	1.33 ± 0.19	2.1 ± 0.43	2.62 ± 0.5
O=C1CCCC(=O)N1CCC1CCNC1 (stereo not shown) [Compound 120]	16.12 ± 0.27	17.22 ± 0.20	3.04 ± 0.47	1.50 ± 0.25	1.56 ± 0.47	2.05 ± 0.25
CC1(C)CC(=O)N(CCc2cnc[nH]2)C(=O)C1 [Compound 3]	16.65 ± 0.28	17.32 ± 0.25	3.04 ± 0.42	1.46 ± 0.17	1.56 ± 0.42	2.18 ± 0.28
O=C1CCCC(=O)N1CCN1CCOCC1 [Compound 117]	16.07 ± 0.12	16.48 ± 0.28	3.00 ± 0.41	1.46 ± 0.24	1.6 ± 0.41	2.22 ± 0.34
